Source: BindingDB's records for patent US11414428 (Auckland UniServices Limited, 2022)

Biological target: Indoleamine 2,3-dioxygenase 1 (Homo sapiens, UniProt P14902)
Assay: Enzymatic Assay
Description: Recombinant human IDO1 (rhIDO1) was expressed and purified from cultures of EC538 strain of E. coli transformed with pREP4 and pQE9-IDO plasmid. Reaction mixes were set up in 384-well microplates containing 50 mM phosphate buffer, 10 mM ascorbic, 10 μM methylene blue, 100 μg/mL catalase, 80 μM TRP, 0.01% Tween 20 (v/v) mixed with rhIDO1 (15 μL) at a final concentration of 9 nM in a total volume of 30 μL assay medium. The plates were incubated at 37° C. for 30 min, and the enzymatic reaction was terminated by adding piperidine (200 mM) and heated at 65° C. for 20 min. Fluorescence intensity was read at λex 400 nm and λem 500 nm. Test compounds were dissolved in 100% DMSO and pre-diluted in assay medium prior to adding rhIDO1.

Indoleamine 2,3-dioxygenase 1, sequence (P14902 whole entry): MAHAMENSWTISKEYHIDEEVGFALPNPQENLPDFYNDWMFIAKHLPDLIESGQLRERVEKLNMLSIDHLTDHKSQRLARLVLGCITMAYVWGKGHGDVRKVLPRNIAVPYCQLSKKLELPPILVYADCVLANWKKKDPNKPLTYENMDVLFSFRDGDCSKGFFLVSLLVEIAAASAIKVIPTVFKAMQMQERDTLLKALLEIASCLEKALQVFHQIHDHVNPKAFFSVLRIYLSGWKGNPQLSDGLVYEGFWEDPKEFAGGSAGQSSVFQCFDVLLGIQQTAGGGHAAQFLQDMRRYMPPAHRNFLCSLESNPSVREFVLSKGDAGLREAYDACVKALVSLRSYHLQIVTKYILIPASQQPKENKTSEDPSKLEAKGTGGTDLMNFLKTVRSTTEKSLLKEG

IC50: in the range around 5.5 µM
SMILES: Cc1nc2onc(N)c2c(C)c1Cl [US11414428, Compound 1]
